This test concerns glucane Synthesis of Candida albicans. Put plainly: Inhibition of the glucane synthesis of Candida albicans (membrane preparation, 14C-UDP glucose incorporation). The test is classed as biochemical. The conditions noted are these: purified Candida albicans membranes, 25° C., 1 hour, result in words. The protocol:
Tablets have been prepared containing: • The product of example 14 . . . 150 mg • Excipient q.s.p. . . . 1 g (Detail of the excipient: starch, talc, magnesium stearate). Pharmacological Study A—Inhibition of the glucane Synthesis of Candida albicans.
The membranes of Candida albicans are purified according to the process described by Tang and al Antimicrob. Agents Chemother 35, 99-103, 1991. 22.5 μg of membrane proteins are incubated in a mixture of 2 Mm of 14C-UDP glucose (specific activity=0.34 mCi./mmol, 50 μg of α-amylase, 1 Mm of dithiotreitol (DTT), 1 Mm EDTA, 100 Mm NaF, 7 μM of GTP-γ-S, 1M of sucrose and 5 oMm OF Ttris-HCL (pH 7.8) in a volume of 100 μl. The medium is incubated at 25° C. for 1 hour and the reaction terminated by addition of TCA to a final concentration of 5%. The reaction medium is transferred onto a pre-humidified glass fibre filter. The filter is washed, dried and its radioactivity is counted.
Mulundocandin is used as positive control.
The control of the medium is carried out with the same quantity of DMSO 1%.
As for “Trifluoroacetate of 1-[4-[(2-aminoethyl)amino]-N2-(12-methyl-1-oxotetradecyl)-L-ornithine]4-[4-(4-hydroxyphenyl)-L-threonine]-5-L Serine Echinocandin B (Isomer A and Isomer B) [Example 9]”, the “activity in the test of inhibition of the glucane synthesis of Candida albicans” value is reported as “good activity”. As for `CCCCCCCCOc1ccc(-c2ccc(C(=O)NC3CC(NCCN)CNC(=O)C4C(O)C(C)CN4C(=O)C(CO)NC(=O)C(C(O)Cc4ccc(O)cc4)NC(=O)C4CC(O)CN4C(=O)C(C(C)O)NC3=O)cc2)cc1.O=C(O)C(F)(F)F` (single isomer, unassigned; isomer a) [Example 14, Trifluoroacetate of 1-[4-[(2-aminoethyl)amino]N2-[[4′-(octyloxy)[1.1′-biphenyl]-4-yl]carbonyl]-L-ornithine]4-[4-(4-hydroxyphenyl)-L-threonine]-5-L Serine Echinocandin B (Isomer A)], the “activity in the test of inhibition of the glucane synthesis of Candida albicans” value is “good activity”. The same measure for “(±) Trifluoroacetate of 1-[4-[(aminoiminomethyl) Hydrazono]-N2-(12-methyl-1-oxotetradecyl)-L-ornithine]4-[4-(4-hydroxyphenyl)-L-threonine]-5-L Serine Echinocandin B [Example 11]”: “good activity”.

(Values after patent US7285619B2, “Echinocandin derivatives, their method of preparation and their application as anti-fungal agents” (Aventis Pharma S.A., priority 1997, dated 2007).)
